{"source": "patent EP2150620B1", "about": "“Method for preparing C-6 phosphorylated D-aldohexoses and C-6 phosphorylated D-aldohexose derivatives, and new C-6 phosphorylated D-aldohexose derivatives” (Libragen, priority 2007, dated 2008)", "key": {"[1]": {"tested_on": "polyphosphate-glucose phosphotransferase activity", "assay": "C-6 phosphorylation with enzymatic extracts of other Mycobacterium strains (Example 3)", "settings": "all the enzymatic preparations (five strains); acceptor 150 mM; 24 hours at 30°C", "excerpt": "The bacterial strains used are the followings: • Mycobacterium phlei ATCC 11758, • Mycobacterium smegmatis DSMZ 43465 (equivalent to ATCC 607), • Mycobacterium smegmatis ATCC 607 (equivalent to DSMZ 43465) • Mycobacterium smegmatis ATCC 700084 (or mc^2 155) • Mycobacterium sp DSMZ 2966 (equivalent to NRRL B-3683)"}, "[2]": {"tested_on": "polyphosphate-glucose phosphotransferase", "settings": "cited from earlier work; for activity as phosphoryl acceptor: Arthrobacter sp. strain KM, irrespective of the phosphoryl donor, polyphosphate or ATP"}, "rat brain hexokinase": {"molecular_target": "T1, rat brain hexokinase (Rattus norvegicus, UniProt P05708)", "T1 sequence (P05708 1-918)": "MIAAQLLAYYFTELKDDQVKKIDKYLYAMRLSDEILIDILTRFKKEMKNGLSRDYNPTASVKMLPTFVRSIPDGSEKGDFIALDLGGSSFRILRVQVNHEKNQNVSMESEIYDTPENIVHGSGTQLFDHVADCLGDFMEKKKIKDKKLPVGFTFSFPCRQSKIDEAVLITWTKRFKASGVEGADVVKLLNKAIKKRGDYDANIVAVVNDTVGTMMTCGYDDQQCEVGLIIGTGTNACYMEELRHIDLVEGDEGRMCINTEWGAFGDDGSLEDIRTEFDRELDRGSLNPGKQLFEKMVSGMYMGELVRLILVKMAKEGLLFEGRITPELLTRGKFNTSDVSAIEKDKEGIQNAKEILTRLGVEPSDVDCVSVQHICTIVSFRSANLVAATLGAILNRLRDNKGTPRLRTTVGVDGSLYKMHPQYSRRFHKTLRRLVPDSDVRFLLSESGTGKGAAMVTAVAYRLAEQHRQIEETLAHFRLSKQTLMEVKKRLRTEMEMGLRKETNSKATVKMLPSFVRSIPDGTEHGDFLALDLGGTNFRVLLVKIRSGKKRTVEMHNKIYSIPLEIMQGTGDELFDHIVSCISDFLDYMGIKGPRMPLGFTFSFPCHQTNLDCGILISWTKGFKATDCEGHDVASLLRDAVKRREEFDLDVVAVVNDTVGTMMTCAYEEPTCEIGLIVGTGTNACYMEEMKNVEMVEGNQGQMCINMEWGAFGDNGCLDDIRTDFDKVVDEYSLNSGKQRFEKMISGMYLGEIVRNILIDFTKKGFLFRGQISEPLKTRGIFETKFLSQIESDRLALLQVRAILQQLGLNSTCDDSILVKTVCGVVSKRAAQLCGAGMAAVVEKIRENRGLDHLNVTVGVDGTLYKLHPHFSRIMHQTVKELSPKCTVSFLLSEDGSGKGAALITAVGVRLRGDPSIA", "settings": "relative to glucose 6-phosphate; cited from earlier work"}, "[3]": {"molecular_target": "polyphosphate-glucose phosphotransferase (Mycobacterium tuberculosis, UniProt P9WIN1)", "sequence (P9WIN1 whole entry)": "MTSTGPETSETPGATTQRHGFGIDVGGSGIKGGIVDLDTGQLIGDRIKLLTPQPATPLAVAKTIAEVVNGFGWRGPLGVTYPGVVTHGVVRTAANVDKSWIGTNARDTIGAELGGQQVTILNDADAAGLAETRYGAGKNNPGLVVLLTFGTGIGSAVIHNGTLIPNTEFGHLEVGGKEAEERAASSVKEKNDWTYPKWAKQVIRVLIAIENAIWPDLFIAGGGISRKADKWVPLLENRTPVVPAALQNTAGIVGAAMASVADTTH", "settings": "cited from earlier work; for Ki: read-out: Ki (ATP inhibits at high concentration)"}, "[4]": {"tested_on": "polyphosphate-glucose phosphotransferase", "settings": "cited from earlier work; for inhibition of the enzyme: donor ATP; for Km: pH 7.5, 30°C"}, "[5]": {"tested_on": "polyphosphate-glucose phosphotransferase", "settings": "acceptor D-glucose; label is the phosphate donor; Propionibacterium arabinosum enzyme; cited from earlier work"}, "[6]": {"tested_on": "polyphosphate-glucose phosphotransferase", "settings": "acceptor glucose; cited from earlier work"}, "[7]": {"tested_on": "polyphosphate-glucose phosphotransferase activity", "assay": "C-6 phosphorylation of acceptors with polyphosphate by an enzymatic extract, detected by thin layer chromatography (Examples 1 and 2)", "settings": "Example 2; same synthesis and detection conditions as Example 1"}, "[8]": {"tested_on": "polyphosphate-glucose phosphotransferase", "settings": "donor ATP, acceptor D-glucose; cited from earlier work"}, "[9]": {"settings": "donor polyphosphate, acceptor D-glucose"}}, "note": "Read-outs that look alike come from different tables or passages of the source."}
{"smiles": "O=CC[C@@H](O)[C@H](O)[C@H](O)COP(=O)(O)O", "note": "[2-deoxy-D-glucose-6-phosphate]", "values": [{"measurement": "synthesis of the phosphorylated product by the enzymatic preparations", "setting": "[1]", "result": "able to catalyze the synthesis"}]}
{"smiles": "O=CC[C@@H](O)[C@H](O)[C@H](O)CO", "note": "[2-deoxy-D-glucose]", "values": [{"measurement": "activity as phosphoryl acceptor", "setting": "[2]", "result": "inert"}]}
{"smiles": "O=C[C@H](O)[C@@H](O)[C@H](O)[C@H](S)COP(=O)(O)O", "note": "[5-thioglucose 6-phosphate]", "values": [{"measurement": "inhibition constant Ki of rat brain hexokinase, lower than that seen with glucose 6-phosphate", "setting": "rat brain hexokinase", "result": 10, "unit": "fold"}]}
{"smiles": "Nc1ncnc2c1ncn2[C@@H]1O[C@H](COP(=O)(O)OP(=O)(O)O)[C@@H](O)[C@H]1O", "note": "[ADP]", "values": [{"measurement": "inhibition of the enzyme", "setting": "[3]; donor ATP, acceptor D-glucose", "result": "inhibit"}, {"measurement": "inhibition of the enzyme", "setting": "[4]; acceptor D-glucose", "result": "inhibit"}]}
{"smiles": "Nc1ncnc2c1ncn2[C@@H]1O[C@H](COP(=O)(O)O)[C@@H](O)[C@H]1O", "note": "[AMP]", "values": [{"measurement": "inhibition of the enzyme", "setting": "[3]; donor ATP, acceptor D-glucose", "result": "inhibit"}]}
{"smiles": "Nc1ncnc2c1ncn2[C@@H]1O[C@H](COP(=O)(O)OP(=O)(O)OP(=O)(O)O)[C@@H](O)[C@H]1O", "note": "[ATP, adenosine triphosphate]", "values": [{"measurement": "Turnover", "setting": "[5]", "result": "Dimer: 2 x 30000 Turnover: 63 s^-1"}, {"measurement": "Turnover", "setting": "[3]; acceptor D-glucose, label is the phosphate donor", "result": 116, "unit": "s⁻¹"}, {"measurement": "Km", "setting": "[3]; pH 7.5, donor ATP", "result": 880, "unit": "µM"}, {"measurement": "Ki", "setting": "[3]; pH 7.5, donor ATP", "result": 6.6, "unit": "mM"}, {"measurement": "Km", "setting": "[3]; pH 8.6, donor ATP", "result": 1400, "unit": "µM"}, {"measurement": "Ki", "setting": "[3]; pH 8.6, donor ATP", "result": 7.4, "unit": "mM"}, {"measurement": "activity with phosphate donor", "setting": "[6]", "result": "No activity with ATP."}, {"measurement": "Turnover", "setting": "[4]; acceptor D-glucose, label is the phosphate donor, Propionibacterium shermanii enzyme", "result": 25, "unit": "s⁻¹"}, {"measurement": "Km", "setting": "[4]; label is the phosphate donor", "result": 1500, "unit": "µM"}]}
{"smiles": "Nc1ccn([C@@H]2O[C@H](COP(=O)(O)OP(=O)(O)OP(=O)(O)O)[C@@H](O)[C@H]2O)c(=O)n1", "note": "[CTP]", "values": [{"measurement": "Km", "setting": "[4]; label is the phosphate donor", "result": 5900, "unit": "µM"}]}
{"smiles": "O=C[C@@H](O)[C@H](O)[C@H](O)[C@H](O)CO", "note": "[D-altrose]", "values": [{"measurement": "phosphorylation of the acceptor (new substance in the 24 hours-incubation medium)", "setting": "[7]", "result": "not phosphorylated"}]}
{"smiles": "O=C(CO)[C@@H](O)[C@H](O)[C@H](O)CO", "note": "[D-fructose]", "values": [{"measurement": "phosphorylation of the acceptor (new substance in the 24 hours-incubation medium)", "setting": "[7]", "result": "not phosphorylated"}, {"measurement": "activity as phosphoryl acceptor", "setting": "[2]", "result": "inert"}]}
{"smiles": "O=C[C@H](O)[C@@H](O)[C@@H](O)[C@H](O)CO", "note": "[D-galactose]", "values": [{"measurement": "phosphorylation of the acceptor (new substance in the 24 hours-incubation medium)", "setting": "[7]", "result": "not phosphorylated"}, {"measurement": "activity as phosphoryl acceptor", "setting": "[2]", "result": "inert"}]}
{"smiles": "O=P(O)(O)OCC1OC(OP(=O)(O)O)C(O)C(O)C1O", "note": "[D-glucose-1,6-bisphosphate]", "values": [{"measurement": "synthesis of the phosphorylated product by the enzymatic preparations", "setting": "[1]", "result": "could not be synthesized"}]}
{"smiles": "O=P(O)(O)OC[C@H]1O[C@@H](S)[C@H](O)[C@@H](O)[C@@H]1O", "note": "[D-glucothiose-6-phosphate]", "values": [{"measurement": "synthesis of the phosphorylated product by the enzymatic preparations", "setting": "[1]", "result": "able to catalyze the synthesis"}]}
{"smiles": "O=C[C@@H](O)[C@@H](O)[C@H](O)[C@H](O)CO", "note": "[D-mannose]", "values": [{"measurement": "activity as % of the activity with glucose", "setting": "[2]; donor ATP", "result": "About 30% of the activity with glucose."}, {"measurement": "activity as % of the activity with glucose", "setting": "[2]; donor polyphosphate", "result": "~40", "unit": "%"}, {"measurement": "Km", "setting": "[2]; pH 7.0, 30°C, donor polyphosphate", "result": 150, "unit": "µM"}]}
{"smiles": "O=C[C@H](O)[C@H](O)[C@H](O)CO", "note": "[D-ribose]", "values": [{"measurement": "phosphorylation of the acceptor (new substance in the 24 hours-incubation medium)", "setting": "[7]", "result": "not phosphorylated"}]}
{"smiles": "O=C[C@H](O)[C@@H](O)[C@H](O)CO", "note": "[D-xylose]", "values": [{"measurement": "inhibition of the enzyme", "setting": "[3]; donor ATP, acceptor D-glucose", "result": "inhibit"}, {"measurement": "inhibition of the enzyme", "setting": "[4]; acceptor D-glucose", "result": "inhibits"}]}
{"smiles": "O=C(CO)[C@@H](O)[C@H](O)[C@H](O)COP(=O)(O)O", "note": "[Fru6P]", "values": [{"measurement": "inhibition of the enzyme", "setting": "[3]; donor ATP, acceptor D-glucose", "result": "inhibit"}, {"measurement": "inhibition of the enzyme", "setting": "[3]; [9]", "result": "inhibit"}]}
{"smiles": "O=P(O)(O)OC[C@H]1OC(O)[C@H](O)[C@@H](O)[C@@H]1O", "note": "(stereo partly drawn) [Glc6P]", "values": [{"measurement": "inhibition of the enzyme", "setting": "[3]; [9]", "result": "inhibit"}, {"measurement": "inhibition of the enzyme", "setting": "[4]; acceptor D-glucose", "result": "inhibit"}]}
{"smiles": "[Cl-].[Na+]", "note": "[NaCl]", "values": [{"measurement": "inhibits above (concentration)", "setting": "[8]", "result": "NaCl above 100 mM inhibits. Mol. weight: 59000"}]}
{"smiles": "O=P(O)(O)OP(=O)(O)OP(=O)(O)O", "note": "[TriPoly(P)]", "values": [{"measurement": "inhibition of the enzyme", "setting": "[4]; acceptor D-glucose", "result": "inhibits"}]}
{"smiles": "O=P(O)(O)O[C@H]1O[C@H](CO)[C@@H](O)[C@H](O)[C@H]1O", "note": "[α-D-glucose-1-phosphate]", "values": [{"measurement": "phosphorylation of the acceptor (new substance in the 24 hours-incubation medium)", "setting": "[7]", "result": "not phosphorylated"}]}
